In BindingDB's records for doi:10.1016/s0960-894x(02)00602-9 (Bayer, 2002):

Key:
[1] = Concentration required to inhibit human recombinant Poly (ADP-ribose) polymerase 1 was determined using cell protection assay
[2] = as above; remark: listed apart in the source
[3] = Concentration required to inhibit human recombinant PARP-1 was determined using cell protection assay

SMILES | EC50 [1] [nM] | EC50 [3] [nM] | other results
O=C(CCn1c2c(c(=O)[nH]c1=O)CSCC2)NCC(=O)c1ccc2ccccc2c1 [3-(2,4-Dioxo-3,4,7,8-tetrahydro-2H,5H-thiopyrano[4,3-d]pyrimidin-1-yl)-N-(2-naphthalen-2-yl-2-oxo-ethyl)-propionamide] | 80 | – | –
O=C(CCn1c2c(c(=O)[nH]c1=O)CSCC2)NCC(=O)N1CCN(c2ccccc2)CC1 [3-(2,4-Dioxo-3,4,7,8-tetrahydro-2H,5H-thiopyrano[4,3-d]pyrimidin-1-yl)-N-[2-oxo-2-(4-phenyl-piperazin-1-yl)-ethyl]-propionamide] | – | – | EC50 [2]: 100 nM
COc1ccc(C(=O)CNC(=O)CCn2c3c(c(=O)[nH]c2=O)CSCC3)cc1 [3-(2,4-dioxo-2,3,4,5,7,8-hexahydro-1H-thiopyrano[4,3-d]pyrimidin-1-yl)-N-(2-(4-methoxyphenyl)-2-oxoethyl)propanamide] | – | 80 | –
O=C(CCn1c2c(c(=O)[nH]c1=O)CSCC2)NCC(=O)c1ccc(-c2ccccc2)cc1 [N-(2-Biphenyl-4-yl-2-oxo-ethyl)-3-(2,4-dioxo-3,4,7,8-tetrahydro-2H,5H-thiopyrano[4,3-d]pyrimidin-1-yl)-propionamide] | – | 500 | –
Nc1cccc(-c2ccc(C(=O)CNC(=O)CCn3c4c(c(=O)[nH]c3=O)CSCC4)cc2)c1 [N-[2-(3'-Amino-biphenyl-4-yl)-2-oxo-ethyl]-3-(2,4-dioxo-3,4,7,8-tetrahydro-2H,5H-thiopyrano[4,3-d]pyrimidin-1-yl)-propionamide] | 70 | – | –
O=C(CCn1c2c(c(=O)[nH]c1=O)CSCC2)NCC(=O)c1ccc(Cl)cc1 [N-[2-(4-Chloro-phenyl)-2-oxo-ethyl]-3-(2,4-dioxo-3,4,7,8-tetrahydro-2H,5H-thiopyrano[4,3-d]pyrimidin-1-yl)-propionamide] | 500 | – | –
O=C(CCn1c2c(c(=O)[nH]c1=O)CSCC2)NCC(=O)c1ccc(OC(F)F)cc1 [N-[2-(4-Difluoromethoxy-phenyl)-2-oxo-ethyl]-3-(2,4-dioxo-3,4,7,8-tetrahydro-2H,5H-thiopyrano[4,3-d]pyrimidin-1-yl)-propionamide] | – | 200 | –

More lines, main results first:

EC50 [1] [nM] | EC50 [3] [nM] | SMILES | other results
100 | – | O=C(CCn1c2c(c(=O)[nH]c1=O)CSCC2)NCC(=O)N1CCN(c2ccccn2)CC1 [3-(2,4-Dioxo-3,4,7,8-tetrahydro-2H,5H-thiopyrano[4,3-d]pyrimidin-1-yl)-N-[2-oxo-2-(4-pyridin-2-yl-piperazin-1-yl)-ethyl]-propionamide] | –
– | 100 | O=C(CCn1c2c(c(=O)[nH]c1=O)CSCC2)NCC(=O)N1CCN(c2ncccc2C(F)(F)F)CC1 [3-(2,4-Dioxo-3,4,7,8-tetrahydro-2H,5H-thiopyrano[4,3-d]pyrimidin-1-yl)-N-{2-oxo-2-[4-(3-trifluoromethyl-pyridin-2-yl)-piperazin-1-yl]-ethyl}-propionamide] | –
100 | – | O=C(CCn1c2c(c(=O)[nH]c1=O)CSCC2)NCC(=O)N1CCN(c2cc(C(F)(F)F)ccn2)CC1 [3-(2,4-Dioxo-3,4,7,8-tetrahydro-2H,5H-thiopyrano[4,3-d]pyrimidin-1-yl)-N-{2-oxo-2-[4-(4-trifluoromethyl-pyridin-2-yl)-piperazin-1-yl]-ethyl}-propionamide] | –
– | 3500 | O=C(CCn1c2c(c(=O)[nH]c1=O)CSCC2)NCC(=O)c1cccc(Br)c1 [N-[2-(3-Bromo-phenyl)-2-oxo-ethyl]-3-(2,4-dioxo-3,4,7,8-tetrahydro-2H,5H-thiopyrano[4,3-d]pyrimidin-1-yl)-propionamide] | –
700 | – | Nc1cccnc1N1CCN(C(=O)CNC(=O)CCn2c3c(c(=O)[nH]c2=O)CSCC3)CC1 [N-{2-[4-(3-Amino-pyridin-2-yl)-piperazin-1-yl]-2-oxo-ethyl}-3-(2,4-dioxo-3,4,7,8-tetrahydro-2H,5H-thiopyrano[4,3-d]pyrimidin-1-yl)-propionamide] | –
